Results as given in patent US11746136B2, “Composition and methods for disruption of bacterial biofilms without accompanying inflammation” (Research Institute at Nationwide Children's Hospital, priority 2017, dated 2023).

B1: HMGB1: HMGB1 added to UPEC UTI89 biofilm; probably the recombinant human HMGB1 (rHMGB1) (protein, UniProt P09429 1-215, looked up)
High mobility group protein B1: MGKGDPKKPRGKMSSYAFFVQTCREEHKKKHPDASVNFSEFSKKCSERWKTMSAKEKGKFEDMAKADKARYEREMKTYIPPKGETKKKFKDPNAPKRPPSAFFLFCSEYRPKIKGEHPGLSIGDVAKKLGEMWNNTAADDKQPYEKKAAKLKEKYEKDIAAYRAKGKPDAAKKGVVKAEKSKKKKEEEEDEEDEEDEEEEEDEEDEDEEEDDDDE

Key:
Staphylococcus aureus = test: Anti-biofilm effect on in vitro preformed 24-hour biofilm (CLSM, COMSTAT); assay type: cell-based; design: key: ↓: 20-30% decrease; ↓↓: 31-50% decrease; ↓↓↓: >51% decrease; ↔: No change; conditions: 5 μg/ml added at 24h to preformed biofilm, 16 h incubation; decrease vs control
Method: (§1) To determine the antibiofilm function of the variant HMGB1 (mHMGB1 (C45S)), Applicants expressed and purified human recombinant HMGB1 (rHMGB1) and recombinant variant HMGB1 (mHMGB1 (C45S)) in E. coli. In vitro preformed 24-hour biofilms formed by multiple human pathogens as indicated in Table 1 were incubated with 5 μg/ml rHMGB1 or mHMGB1 (C45S) for 16 hours. Enterococcus faecium biofilms were incubated with 20 μg/ml rHMGB1 or mHMGB1 (C45S) for 16 hours. Biofilms were washed and stained with LIVE/DEAD® stain and analyzed using a confocal laser scanning microscope and COMSTAT analysis. Applicants observed that mHMGB1 (C45S) was effective at disrupting each of the in vitro preformed biofilms as indicated by significant reduction in average thickness and biomass compared to the control (Table 1).
(§2) HMGB1 isoforms (5 μg/ml) were added at 24h to in vitro preformed bacterial biofilms. After 16 h of incubation (40h total), biofilms were washed and stained with LIVE/DEAD® followed by visualization using CLSM. Biofilms were analyzed by Comstat to calculate average thickness^a (AT) and biomass^a (BM).

Acinetobacter baumanii = test: as above; assay type: cell-based; conditions: 5 μg/ml added at 24h to preformed biofilm, 16 h incubation; decrease vs control
Method: as §1, §2

[1] = test system: Aggregatibacter actinomycetemcomitans; test: as above; assay type: cell-based; conditions: 5 μg/ml added at 24h to preformed biofilm, 16 h incubation; decrease vs control
Method: as §1, §2

Burkholderia cenocepacia [2] = test: as above; assay type: cell-based; conditions: 5 μg/ml added at 24h to preformed biofilm, 16 h incubation; decrease vs control
Method: as §1, §2

Enterobacter spp. = test: as above; assay type: cell-based; conditions: 5 μg/ml added at 24h to preformed biofilm, 16 h incubation; decrease vs control
Method: as §1, §2

Enterococcus faecium = test: as above; assay type: cell-based; conditions: 20 μg/ml added at 24h to preformed biofilm, 16 h incubation; decrease vs control
Method: as §1, §2

Klebsiella pneumoniae = test: as above; assay type: cell-based; conditions: 5 μg/ml added at 24h to preformed biofilm, 16 h incubation; decrease vs control
Method: as §1, §2

[3] = test system: Nontypeable Haemophilus influenzae; test: as above; assay type: cell-based; conditions: 5 μg/ml added at 24h to preformed biofilm, 16 h incubation; decrease vs control
Method: as §1, §2

Pseudomonas aeruginosa = test: as above; assay type: cell-based; conditions: 5 μg/ml added at 24h to preformed biofilm, 16 h incubation; decrease vs control
Method: as §1, §2

Uropathogenic E. coli = test: as above; assay type: cell-based; conditions: 5 μg/ml added at 24h to preformed biofilm, 16 h incubation; decrease vs control
Method: as §1, §2

[4] = test system: NTHI strain 86-028NP biofilms; test: Chinchilla model of experimental otitis media, clearance of preformed NTHI biofilms; assay type: in vivo; conditions: 4-day old NTHI biofilm, two doses (day 4 and 5; 5 μg each) into middle ear, scored day 6, vs diluent
Method: Diluent, 5 μg rHMGB1, or 5 mHMGB1 (C45S) were delivered directly to the middle ears of chinchillas at 4 and 5 days post infection with NTHI. Animals were sacrificed 24 h later and their middle ears were imaged (FIG. 1A) and blindly scored (FIG. 1B) based on the criteria described in the bottom of FIG. 1A. Bars represent SEM. ***P<0.001.
Diluent or 5 μg rHMGB1 or mHMGB1 (C45 S) were delivered directly to middle ears of chinchillas at 4 and 5 days post infection with NTHI. Animals were sacrificed 24 h later, and their middle ears were imaged (FIG. 6A) and blindly scored (FIG. 6B) based on the criteria described in the bottom of (FIG. 6A). Bars represent SEM. ***P<0.001.
To determine the antibiofilm function of mHMGB1 (C45S) in vivo, Applicants employed two distinct animal models. In the first model Applicants tested the ability of rHMGB1 and mHMGB1 (C45S) to clear preformed NTHI biofilms in Applicants' well-established chinchilla model of experimental OM (Novotny et al. 2011; 2013b; Novotny et al. 2016). Applicants first established NTHI strain 86-028NP biofilms in the chinchilla middle ear for 4 days. […] On day 6 the animals were sacrificed and the middle ears were blindly scored for the presence of any remaining biofilm. […] After 4h, mice were sacrificed and total neutrophils were quantified in peritoneal lavage.

Burkholderia cenocepacia [5] = assay type: in vivo, C57BL/6 mice; conditions: for bacterial burden (CFUs) in BAL: 10^7 CFU intratracheally, 5 μg added simultaneously, after 18 hours, vs control
Method: C57BL/6 mice were infected with 10^7 CFU i.t., and simultaneously received rHMGB1 or mHMGB1 (C45S). After 18 h, (FIG. 2A) B. cenocepacia CFUs were quantified in BAL, (FIG. 2B) total host cells infiltrating into the lung were enumerated in BAL, and (FIG. 2C) BAL cells were stained with anti CD45, CD11b and Ly-6G to measure neutrophil migration. Bars represent standard deviation. *P<0.05; **P<0.005. (FIG. 2D) Lungs were collected 72 hpi. Tissue was fixed and embedded in paraffin, sectioned and stained with H&E. All panels show a magnification of 10×.
C57BL/6 mice were infected with 10^7 CFU i.t., and simultaneously received […] rHMGB1 or mHMGB1 (C45 S). (FIG. 7A) Aggregates of B. cenocepacia were visible by fluorescence microscopy in sections probed with an α-B. cenocepacia antibody. After 18 h, (FIG. 7B) CFUs were quantified in BAL, and (FIG. 7C) BAL cells were stained with α-CD45, CD11b, and Ly-6G to measure neutrophil migration. Bars represent SD. *P<0.05.
To determine the antibiofilm function of mHMGB1 (C45S) in vivo, Applicants employed two distinct animal models. In the first model Applicants tested the ability of rHMGB1 and mHMGB1 (C45S) to clear preformed NTHI biofilms in Applicants' well-established chinchilla model of experimental OM (Novotny et al. 2011; 2013b; Novotny et al. 2016). Applicants first established NTHI strain 86-028NP biofilms in the chinchilla middle ear for 4 days. Applicants then treated the 4-day old NTHI biofilm with two doses (day 4 and 5; 5 μg each) of rHMGB1, mHMGB1 (C45S) or diluent. On day 6 the animals were sacrificed and the middle ears were blindly scored for the presence of any remaining biofilm. […] In the second model, Applicants tested the ability of rHMGB1 and mHMGB1 (C45S) to inhibit biofilm development of Burkholderia cenocepacia in the murine airways. C57BL/6 mice were infected with 10^7 CFU of B. cenocepacia intratracheally and 5 μg of rHMGB1 or mHMGB1 (C45S) was added simultaneously. After 18 hours, the animals were sacrificed and bronchoalveolar lavage (BAL) and lungs were collected. […] Lastly, Applicants validated the inflammatory activity of rHMGB1 and mHMGB1 (C45S) in an in vivo chemotaxis model to determine the ability to recruit neutrophils (Orlova et al. 2007; Penzo et al. 2010). C57BL/6 mice were injected with 5 μg of either mHMGB1 (C45S) or rHMGB1 or 1 ml of 4% thioglycollate. After 4h, mice were sacrificed and total neutrophils were quantified in peritoneal lavage.

branched DNA structures = test: Affinity to branched DNA structures; assay type: binding; conditions: effect of the C45S mutation
[6] = Consequences of bacterial dispersal from biofilm in vivo (second site infections, sepsis)
Source text: Also, this dispersal effect could result in sepsis.

[7] = test system: Uropathogenic E. coli UTI89; test: HMGB1 added at seeding and at 24h to UPEC biofilm; assay type: cell-based; conditions: 0.1, 1 and 5 μg/ml added at seeding and at 24h
Method: Applicants added HMGB1 at 0.1, 1 and 5 μg/ml at seeding and at 24h to a biofilm formed by Uropathogenic E. coli UTI89. […] Based on this information, Applicants hereby disclose a method for inhibiting, competing or titrating the binding of a deoxyribonucleic acid B II (DNABII) polypeptide to a microbial DNA in a biofilm, comprising, or alternatively consisting essentially of, or yet further consisting of, contacting the microbial DNA in the biofilm with an effective amount of an isolated or recombinant polypeptide comprising a modified high mobility group-box 1 domain (mHMGB1) comprising a C45S substitution thereby inhibiting, competing or titrating the binding of the DNABII polypeptide to the microbial DNA. The contacting can be accomplished in vitro or in vivo. Non-limiting examples of organisms that promote our cause the biofilm include one or more of Burkholderia cenocepacia, Enterobacter spp., Staphylococcus aureus, Klebsiella pneumoniae, Acinetobacter baumanii, Pseudomonas aeruginosa, Enterococcus faecium, Uropathogenic Escherichia coli (UPEC), Non-typeable Haemophilus influenzae (NTHI), and/or Aggregatibacter actinomycetemcomitans.

Row | Molecule | average thickness (AT) (Staphylococcus aureus) | biomass (BM) (Staphylococcus aureus) | average thickness (AT) (Acinetobacter baumanii) | biomass (BM) (Acinetobacter baumanii) | average thickness (AT) [1] | biomass (BM) [1] | average thickness (AT) (Burkholderia cenocepacia [2]) | biomass (BM) (Burkholderia cenocepacia [2]) | average thickness (AT) (Enterobacter spp.) | biomass (BM) (Enterobacter spp.) | average thickness (AT) (Enterococcus faecium) | biomass (BM) (Enterococcus faecium) | average thickness (AT) (Klebsiella pneumoniae) | biomass (BM) (Klebsiella pneumoniae) | average thickness (AT) [3] | biomass (BM) [3] | average thickness (AT) (Pseudomonas aeruginosa) | biomass (BM) (Pseudomonas aeruginosa) | average thickness (AT) (Uropathogenic E. coli) | biomass (BM) (Uropathogenic E. coli) | also measured
1 | mHMGB1 (C45S): variant human HMGB1 with the cysteine at position 45 substituted with serine, expressed in E. coli (MGKGDPKKPRGKMSSYAFFVQTCREEHKKKHPDASVNFSEFSKKSSERWK) | ↓↓↓ (>51% decrease) | ↓↓↓ (>51% decrease) | ↓↓↓ (>51% decrease) | ↓↓↓ (>51% decrease) | ↓ (20-30% decrease) | ↓ (20-30% decrease) | ↓↓↓ (>51% decrease) | ↓↓↓ (>51% decrease) | ↓↓↓ (>51% decrease) | ↓↓↓ (>51% decrease) | ↓↓ (31-50% decrease) | ↓↓ (31-50% decrease) | ↓↓↓ (>51% decrease) | ↓↓↓ (>51% decrease) | ↓ (20-30% decrease) | ↓ (20-30% decrease) | ↓↓↓ (>51% decrease) | ↓↓↓ (>51% decrease) | ↓↓↓ (>51% decrease) | ↓↓↓ (>51% decrease) | clearing of biofilm from the middle ear (blindly scored) [4]: very effective at clearing the biofilms from the middle ear; B. cenocepacia CFUs in BAL compared to rHMGB1 (Burkholderia cenocepacia [5]; 10^7 CFU i.t., simultaneous treatment, after 18 h, compared to rHMGB1): significant decreases; bacterial burden (CFUs) in BAL (Burkholderia cenocepacia [5]): effective at reducing the bacterial burden in BAL; inflammatory cell infiltration compared to rHMGB1 (Burkholderia cenocepacia [5]; mouse, in vivo): significant decreases; lung damage (H&E) (Burkholderia cenocepacia [5]; mouse, in vivo): more resembled uninfected mouse lungs; affinity to branched DNA structures (branched DNA structures): increases the affinity of the molecule to branched DNA structures; second site infections or sepsis after dispersal of bacteria from biofilm [6]: None of these consequences has been observed
2 | rHMGB1: recombinant HMGB1 derived from a human, expressed and purified in E. coli, used as comparator to mHMGB1 (C45S) [reference compound] | ↔ | ↔ | ↓↓↓ (>51% decrease) | ↓↓ (31-50% decrease) | ↓ (20-30% decrease) | ↓ (20-30% decrease) | ↓↓↓ (>51% decrease) | ↓↓↓ (>51% decrease) | ↓↓↓ (>51% decrease) | ↓↓↓ (>51% decrease) | ↓↓↓ (>51% decrease) | ↓↓↓ (>51% decrease) | ↓↓↓ (>51% decrease) | ↓↓↓ (>51% decrease) | ↓ (20-30% decrease) | ↓ (20-30% decrease) | ↓↓↓ (>51% decrease) | ↓↓↓ (>51% decrease) | ↓↓ (31-50% decrease) | ↓↓ (31-50% decrease) | clearing of biofilm from the middle ear (blindly scored) [4]: very effective at clearing the biofilms from the middle ear; bacterial burden (CFUs) in BAL (Burkholderia cenocepacia [5]): effective at reducing the bacterial burden in BAL; lung damage (H&E) (Burkholderia cenocepacia [5]; mouse, in vivo): severe inflammation and increased neutrophil response
3 | B1 | – | – | – | – | – | – | – | – | – | – | – | – | – | – | – | – | – | – | – | – | disruption of UPEC biofilms [7]: dose-dependent disruption of UPEC biofilms
